22 compounds from US8450317B2, “CXCR3 receptor antagonists” (Boehringer Ingelheim International GmbH, priority 2009, dated 2013) can be followed below.

This assay has as its target CXCR3 (Macaca fascicularis, UniProt A0A2K5UV19). In words: functional cellular assay measuring calcium flux in CXCR3 transfected cells (block of CXCR3/IP-10 interaction). The note with it: IP-10 induced intracellular calcium flux; Cyno-CHO cells stably expressing recombinant CXCR3 and G-alpha-16; IP-10 at EC80; read-out: IC50. In kind it is cell-based, Cyno. As for the experimental part: Compounds are assessed for the ability to block the interaction of CXCR3 and IP-10 in a functional cellular assay measuring calcium flux in CXCR3 transfected cells.
Cyno-CHO cells, stably expressing recombinant CXCR3 and G-alpha-16 are grown in F12 medium (Mediatech #45000-360) supplemented with 10% (V/V) FBS (Mediatech #35-01500), 1% Geneticin (Invitrogen #10131-027) and 0.2% Zeocin (Invitrogen #R250-05). The cells are spun down and re-suspended in growth media to a concentration of […]. 25 microL of cell suspension is added to each well of a BD-384-well TC treated plate, providing 12,000 cells/well. The plate is incubated at 37° C./5% CO2 overnight. On the day of the assay, the plates are removed, the media is flicked out and 25 microL of Ca-4 dye in assay buffer (HBSS, 10 mM HEPES ph 7.4), containing 2 mM probenacid is added to each well. The cell assay plates are then incubated at 37° C./5% CO2 for one hour.
Test compounds are dissolved in DMSO and diluted to 1.045 mM in DMSO. Just prior to assay, 2.75 microL of appropriately diluted test compound are added to each well of a 384 well plate containing 45 microL of HBSS buffer. After mixing, 5 microL of diluted compound are added to each well of the cell assay plate for a final assay concentration of 10 microM. The plate is incubated at room temperature for 15 min. 10 microL of IP-10 stock solution in HBSS (4× EC80 concentration) are added to each well of the cell assay plate except those cells reserved as blank wells containing buffer only. Intracellular calcium flux is recorded on the HAMAMTSU FDSS6000, using excitation at 480 nm and emission at 540 nm. Data are analyzed using Activity Base software.
In general, the preferred potency range (IC50) of compounds in the above assay is between 1 nM to 3 μM, and the most preferred potency range is 1 nM to 200 nM.
(Calcium flux is commonly read through the fluorescence of an indicator in the cells.)

Molecules are shown by their SMILES.

Chain of CXCR3 (A0A2K5UV19 entry or part of it): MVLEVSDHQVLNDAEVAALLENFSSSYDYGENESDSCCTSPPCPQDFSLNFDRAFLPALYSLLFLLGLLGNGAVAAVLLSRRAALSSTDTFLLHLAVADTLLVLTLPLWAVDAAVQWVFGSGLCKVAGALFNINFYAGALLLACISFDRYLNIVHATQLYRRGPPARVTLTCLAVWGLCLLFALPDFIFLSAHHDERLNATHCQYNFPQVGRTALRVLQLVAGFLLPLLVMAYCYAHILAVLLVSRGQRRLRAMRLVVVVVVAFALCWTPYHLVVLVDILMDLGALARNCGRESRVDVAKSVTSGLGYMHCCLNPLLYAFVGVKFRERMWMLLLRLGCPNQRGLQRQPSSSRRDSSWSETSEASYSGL

The term IC50 denotes the concentration at which inhibition is half-maximal. `CC1CN(c2ccc(C(F)(F)F)cc2-c2cnc(S(C)(=O)=O)nc2)CCN1C(=O)Cn1ccc2cccnc21` (stereo not shown) [1-(2-methyl-4-{2-[2-(methylsulfonyl)pyrimidin-5-yl]-4-(trifluoromethyl)phenyl}piperazin-1-yl)-2-(1H-pyrrolo[2,3-b]pyridin-1-yl)ethanone]: the IC50 amounted to 30 nM. The figure for `CC1CN(c2ccccc2-c2cnc(S(C)(=O)=O)nc2)CCN1C(=O)Cn1ccc2cccnc21` (stereo not shown) [1-(2-methyl-4-{2-[2-(methylsulfonyl)pyrimidin-5-yl]phenyl}piperazin-1-yl)-2-(1H-pyrrolo[2,3-b]pyridin-1-yl)ethanone] is 27 nM; for `CC1CN(c2ccc(C(F)(F)F)cc2-c2cnc(N3CCC(S(C)(=O)=O)CC3)nc2)CCN1C(=O)Cn1c(=O)[nH]c2ccccc21` (stereo not shown) [1-(2-{2-methyl-4-[2-{2-[4-(methylsulfonyl)piperidin-1-yl]pyrimidin-5-yl}-4-(trifluoromethyl)phenyl]piperazin-1-yl}-2-oxoethyl)-1,3-dihydro-2H-benzimidazol-2-one] it is 8 nM; for `CC1CN(c2ccc(C(F)(F)F)cc2-c2cnc(N3CCC(S(C)(=O)=O)CC3)nc2)CCN1C(=O)CN1CCCCC1=O` (stereo not shown) [1-(2-{2-methyl-4-[2-{2-[4-(methylsulfonyl)piperidin-1-yl]pyrimidin-5-yl}-4-(trifluoromethyl)phenyl]piperazin-1-yl}-2-oxoethyl)piperidin-2-one] it is 11 nM. The figure for `COc1ncc(-c2ccccc2N2CCN(C(=O)Cn3c(=O)n(C)c4ccccc43)CC2)cn1` [1-(2-{4-[2-(2-Methoxy-pyrimidin-5-yl)-phenyl]-piperazin-1-yl}-2-oxo-ethyl)-3-methyl-1,3-dihydro-benzoimidazol-2-one] is 11 nM; for `O=C(Cn1c(=O)[nH]c2ccccc21)N1CCN(c2ccccc2-c2cnc(N3CCOCC3)nc2)CC1` [1-(2-{4-[2-(2-Morpholin-4-yl-pyrimidin-5-yl)-phenyl]-piperazin-1-yl}-2-oxo-ethyl)-1,3-dihydro-benzoimidazol-2-one] it is 10 nM. As to `COc1ncc(-c2cc(F)ccc2N2CCN(C(=O)Cn3c(=O)[nH]c4ccccc43)CC2)cn1` [1-(2-{4-[4-fluoro-2-(2-methoxypyrimidin-5-yl)phenyl]piperazin-1-yl}-2-oxoethyl)-1,3-dihydro-2H-benzimidazol-2-one], the IC50 amounted to 13 nM. The value for `COc1ncc(-c2cc(F)ccc2N2CCN(C(=O)CN3CCCCC3=O)CC2)cn1` [1-(2-{4-[4-fluoro-2-(2-methoxypyrimidin-5-yl)phenyl]piperazin-1-yl}-2-oxoethyl)piperidin-2-one] was 174 nM; that for `Cc1cc(C)n(CC(=O)N2CCN(c3ccccc3-c3cnc(N4CC(C)OC(C)C4)nc3)CC2)n1` (stereo not shown) [1-(4-{2-[2-(2,6-Dimethyl-morpholin-4-yl)-pyrimidin-5-yl]-phenyl}-piperazin-1-yl)-2-(3,5-dimethyl-pyrazol-1-yl)-ethanone] was 6 nM. The value for `Cc1cc(C)n(CC(=O)N2CCN(c3ccccc3-c3cnc(N4CC(F)(F)C4)nc3)CC2)n1` [1-(4-{2-[2-(3,3-Difluoro-azetidin-1-yl)-pyrimidin-5-yl]-phenyl}-piperazin-1-yl)-2-(3,5-dimethyl-pyrazol-1-yl)-ethanone] was 7 nM; that for `Cc1cc(C)n(CC(=O)N2CCN(c3ccccc3-c3cnc(N4CCCC(F)(F)C4)nc3)CC2)n1` [1-(4-{2-[2-(3,3-Difluoro-piperidin-1-yl)-pyrimidin-5-yl]-phenyl}-piperazin-1-yl)-2-(3,5-dimethyl-pyrazol-1-yl)-ethanone] was 9 nM.

`Cc1cc(C)n(CC(=O)N2CCN(c3ccccc3-c3cnc(N4CC(C)CC(C)C4)nc3)CC2)n1` (stereo not shown) [1-(4-{2-[2-(3,5-Dimethyl-piperidin-1-yl)-pyrimidin-5-yl]-phenyl}-piperazin-1-yl)-2-(3,5-dimethyl-pyrazol-1-yl)-ethanone]: the IC50 is 14 nM. The figure for `Cc1cc(C)n(CC(=O)N2CCN(c3ccccc3-c3cnc(N4CCC(F)(F)CC4)nc3)CC2)n1` [1-(4-{2-[2-(4,4-Difluoro-piperidin-1-yl)-pyrimidin-5-yl]-phenyl}-piperazin-1-yl)-2-(3,5-dimethyl-pyrazol-1-yl)-ethanone] is 22 nM; for `Cc1cc(C)n(CC(=O)N2CCN(c3ccccc3-c3cnc(N4CCC(C)(C)CC4)nc3)CC2)n1` [1-(4-{2-[2-(4,4-Dimethyl-piperidin-1-yl)-pyrimidin-5-yl]-phenyl}-piperazin-1-yl)-2-(3,5-dimethyl-pyrazol-1-yl)-ethanone] it is 12 nM; for `Cc1cc(C)n(CC(=O)N2CCN(c3ccccc3-c3cnc(N4CCC(N(C)C)CC4)nc3)CC2)n1` [1-(4-{2-[2-(4-Dimethylamino-piperidin-1-yl)-pyrimidin-5-yl]-phenyl}-piperazin-1-yl)-2-(3,5-dimethyl-pyrazol-1-yl)-ethanone] it is 31 nM.

With `CN1CCN(c2ncc(-c3ccccc3N3CCN(C(=O)Cn4ccc5cccnc54)CC3)cn2)CC1` [1-(4-{2-[2-(4-Methyl-piperazin-1-yl)-pyrimidin-5-yl]-phenyl}-piperazin-1-yl)-2-pyrrolo[2,3-b]pyridin-1-yl-ethanone], the IC50 worked out at 11 nM. With `CC1CN(c2ccc(C(F)(F)F)cc2-c2cnc(N3CCC(O)CC3)nc2)CCN1C(=O)Cn1ccc2cccnc21` (stereo not shown) [1-(4-{2-[2-(4-hydroxypiperidin-1-yl)pyrimidin-5-yl]-4-(trifluoromethyl)phenyl}-2-methylpiperazin-1-yl)-2-(1H-pyrrolo[2,3-b]pyridin-1-yl)ethanone], the IC50 stood at 10 nM.

For `CC1CN(c2ccc(C(F)(F)F)cc2-c2cnc(N3CCC(O)CC3)nc2)CCN1C(=O)Cn1ccc2ccncc21` (stereo not shown) [1-(4-{2-[2-(4-hydroxypiperidin-1-yl)pyrimidin-5-yl]-4-(trifluoromethyl)phenyl}-2-methylpiperazin-1-yl)-2-(1H-pyrrolo[2,3-c]pyridin-1-yl)ethanone], the IC50 stood at 7 nM.

`CC1CN(c2ccc(C(F)(F)F)cc2-c2cnc(N3CCC(O)CC3)nc2)CCN1C(=O)Cn1cnc2cccnc21` (stereo not shown) [1-(4-{2-[2-(4-hydroxypiperidin-1-yl)pyrimidin-5-yl]-4-(trifluoromethyl)phenyl}-2-methylpiperazin-1-yl)-2-(3H-imidazo[4,5-b]pyridin-3-yl)ethanone]: the IC50 turned out to be 11 nM. With `CC1CN(c2ccccc2-c2cnc(N3CCC(O)CC3)nc2)CCN1C(=O)Cn1ccc2cccnc21` (stereo not shown) [1-(4-{2-[2-(4-hydroxypiperidin-1-yl)pyrimidin-5-yl]phenyl}-2-methylpiperazin-1-yl)-2-(1H-pyrrolo[2,3-b]pyridin-1-yl)ethanone], the IC50 came to 9 nM.

For the compound `CC1CN(c2ccccc2-c2cnc(N3CCC(O)CC3)nc2)CCN1C(=O)Cn1ccc2ccncc21` (stereo not shown) [1-(4-{2-[2-(4-hydroxypiperidin-1-yl)pyrimidin-5-yl]phenyl}-2-methylpiperazin-1-yl)-2-(1H-pyrrolo[2,3-c]pyridin-1-yl)ethanone], the IC50 was determined as 8 nM. The figure for `CC1CN(c2ccccc2-c2cnc(N3CCC(O)CC3)nc2)CCN1C(=O)Cn1cnc2cccnc21` (stereo not shown) [1-(4-{2-[2-(4-hydroxypiperidin-1-yl)pyrimidin-5-yl]phenyl}-2-methylpiperazin-1-yl)-2-(3H-imidazo[4,5-b]pyridin-3-yl)ethanone] is 11 nM.
